From ChEMBL document CHEMBL3797052 (Eur J Med Chem, 2016)

Key:
Assay type in all cases: functional
[1] = Antiproliferative activity against human HOP62 cells assessed as cell growth at 10^-6 M after 48 hrs by sulforhodamine B assay; conditions: HOP-62, 48 h, read-out: Activity
SR [2] = experiment: Antiproliferative activity against human SR cells assessed as cell growth at 10^-7 M after 48 hrs by sulforhodamine B assay; conditions: read-out: Activity
HT-29 = experiment: Antiproliferative activity against human HT-29 cells assessed as cell growth at 10^-6 M after 48 hrs by sulforhodamine B assay; conditions: HT-29, 48 h, read-out: Activity
KM12 = experiment: Antiproliferative activity against human KM12 cells assessed as cell growth at 10^-6 M after 48 hrs by sulforhodamine B assay; conditions: KM12, 48 h, read-out: Activity
NCI-H460 [3] = experiment: Antiproliferative activity against human NCI-H460 cells assessed as growth inhibition after 48 hrs by sulforhodamine B assay; conditions: NCI-H460, 48 h
[4] = Antiproliferative activity against human SF295 cells assessed as cell growth at 10^-7 M after 48 hrs by sulforhodamine B assay; conditions: SF-295, 48 h, read-out: Activity
T47D [5] = experiment: Antiproliferative activity against human T47D cells assessed as cell growth at 10^-6 M after 48 hrs by sulforhodamine B assay; conditions: read-out: Activity
CCRF-CEM = experiment: Antiproliferative activity against human CCRF-CEM cells assessed as growth inhibition after 48 hrs by sulforhodamine B assay; conditions: for CC50: read-out: LC50 (the source's name)
Malme-3M [6] = experiment: Antiproliferative activity against human MALME-3M cells assessed as cell growth at 10^-7 M after 48 hrs by sulforhodamine B assay; conditions: read-out: Activity
U-251 [7] = experiment: Antiproliferative activity against human U251 cells assessed as cell growth at 10^-7 M after 48 hrs by sulforhodamine B assay; conditions: U-251, 48 h, read-out: Activity
[8] = Antiproliferative activity against human MOLT4 cells assessed as cell growth at 10^-7 M after 48 hrs by sulforhodamine B assay; conditions: MOLT-4, 48 h, read-out: Activity
U-251 [9] = experiment: Antiproliferative activity against human U251 cells assessed as cell growth at 10^-8 M after 48 hrs by sulforhodamine B assay; conditions: U-251, 48 h, read-out: Activity
NCI-H23 = experiment: Antiproliferative activity against human NCI-H23 cells assessed as cell growth at 10^-6 M after 48 hrs by sulforhodamine B assay; conditions: NCI-H23, 48 h, read-out: Activity
A549 = experiment: Antiproliferative activity against human A549/ATCC cells assessed as cell growth at […] after 48 hrs by sulforhodamine B assay; conditions: A549, 48 h, read-out: Activity
SR [10] = experiment: Antiproliferative activity against human SR cells assessed as growth inhibition after 48 hrs by sulforhodamine B assay
[11] = Antiproliferative activity against human UACC257 cells assessed as growth inhibition after 48 hrs by sulforhodamine B assay; conditions: UACC-257, 48 h; for CC50: read-out: LC50 (the source's name)
NCI-H460 [12] = experiment: Antiproliferative activity against human NCI-H460 cells assessed as cell growth at 10^-7 M after 48 hrs by sulforhodamine B assay; conditions: NCI-H460, 48 h, read-out: Activity
U-251 [13] = experiment: Antiproliferative activity against human U251 cells assessed as growth inhibition after 48 hrs by sulforhodamine B assay; conditions: U-251, 48 h
[14] = Antiproliferative activity against human UO31 cells assessed as cell growth at 10^-7 M after 48 hrs by sulforhodamine B assay; conditions: UO-31, 48 h, read-out: Activity
[15] = Antiproliferative activity against human NCI-ADR-RES cells assessed as cell growth at 10^-4 M after 48 hrs by sulforhodamine B assay; conditions: read-out: Activity
[16] = Antiproliferative activity against human PC3 cells assessed as cell growth at 10^-7 M after 48 hrs by sulforhodamine B assay; conditions: PC-3, 48 h, read-out: Activity
786-0 = experiment: Antiproliferative activity against human 786-0 cells assessed as cell growth at 10^-6 M after 48 hrs by sulforhodamine B assay; conditions: 786-0, 48 h, read-out: Activity
[17] = Antiproliferative activity against human OVCAR3 cells assessed as cell growth at 10^-8 M after 48 hrs by sulforhodamine B assay; conditions: OVCAR-3, 48 h, read-out: Activity
MDA-MB-435 = experiment: Antiproliferative activity against human MDA-MB-435 cells assessed as growth inhibition after 48 hrs by sulforhodamine B assay; conditions: MDA-MB-435, 48 h; for CC50: read-out: LC50 (the source's name)
Malme-3M [18] = experiment: Antiproliferative activity against human MALME-3M cells assessed as growth inhibition after 48 hrs by sulforhodamine B assay; conditions: for CC50: read-out: LC50 (the source's name)
[19] = Antiproliferative activity against human PC3 cells assessed as cell growth at 10^-4 M after 48 hrs by sulforhodamine B assay; conditions: PC-3, 48 h, read-out: Activity
[20] = Antiproliferative activity against human HCT15 cells assessed as cell growth at 10^-4 M after 48 hrs by sulforhodamine B assay; conditions: HCT-15, 48 h, read-out: Activity
SN12C = experiment: Antiproliferative activity against human SN12C cells assessed as cell growth at 10^-8 M after 48 hrs by sulforhodamine B assay; conditions: read-out: Activity
[21] = Antiproliferative activity against human COLO205 cells assessed as cell growth at 10^-6 M after 48 hrs by sulforhodamine B assay; conditions: COLO 205, 48 h, read-out: Activity
[22] = Antiproliferative activity against human Caki1 cells assessed as cell growth at 10^-6 M after 48 hrs by sulforhodamine B assay; conditions: CAKI-1, 48 h, read-out: Activity
NCI-H322M = experiment: Antiproliferative activity against human NCI-H322M cells assessed as cell growth at 10^-4 M after 48 hrs by sulforhodamine B assay; conditions: read-out: Activity
T47D [23] = experiment: Antiproliferative activity against human T47D cells assessed as cell growth at 10^-8 M after 48 hrs by sulforhodamine B assay; conditions: read-out: Activity
[24] = Antiproliferative activity against human UO31 cells assessed as cell growth at 10^-8 M after 48 hrs by sulforhodamine B assay; conditions: UO-31, 48 h, read-out: Activity
NCI-H226 = experiment: Antiproliferative activity against human NCI-H226 cells assessed as cell growth at 10^-4 M after 48 hrs by sulforhodamine B assay; conditions: NCI-H226, 48 h, read-out: Activity
MDA-MB-468 = experiment: Antiproliferative activity against human MDA-MB-468 cells assessed as cell growth at […] after 48 hrs by sulforhodamine B assay; conditions: MDA-MB-468, 48 h, read-out: Activity
[25] = Antiproliferative activity against human OVCAR4 cells assessed as cell growth at 10^-4 M after 48 hrs by sulforhodamine B assay; conditions: OVCAR-4, 48 h, read-out: Activity
EKVX = experiment: Antiproliferative activity against human EKVX cells assessed as cell growth at 10^-7 M after 48 hrs by sulforhodamine B assay; conditions: read-out: Activity

## CNC(=O)c1cc(Oc2ccc3nc(NC(=O)Nc4ccc(Cl)c(C(F)(F)F)c4)sc3c2)ccn1
[1]
  growth at 1 µM: 87%
SR [2]
  growth at 0.1 µM: 105%
HT-29
  growth at 1 µM: 91%
KM12
  growth at 1 µM: 85%
NCI-H460 [3]
  GI50: 1.79 µM
[4]
  growth at 0.1 µM: 88%
T47D [5]
  growth at 1 µM: 43%
CCRF-CEM
  TGI: > 100 µM
  CC50: > 100 µM
Malme-3M [6]
  growth at 0.1 µM: 98%
U-251 [7]
  growth at 0.1 µM: 101%
[8]
  growth at 0.1 µM: 105%
U-251 [9]
  growth at 0.01 µM: 102%
NCI-H23
  growth at 1 µM: 88%
A549
  growth at 0.1 µM: 105%
SR [10]
  GI50: 0.412 µM
  LC50: > 100 µM
  TGI: 9.1 µM
[11]
  GI50: 3.37 µM
  TGI: > 100 µM
  CC50: > 100 µM
NCI-H460 [12]
  growth at 0.1 µM: 103%
U-251 [13]
  GI50: 1.79 µM
  TGI: 3.75 µM
[14]
  growth at 0.1 µM: 107%
[15]
  growth at 100 µM: 11%
[16]
  growth at 0.1 µM: 87%
786-0
  growth at 1 µM: 95%
[17]
  growth at 0.01 µM: 109%
MDA-MB-435
  GI50: 1.9 µM
  CC50: > 100 µM
Malme-3M [18]
  GI50: 1.61 µM
  TGI: 3.63 µM
[19]
  growth at 100 µM: 7%
[20]
  growth at 100 µM: 23%
SN12C
  growth at 0.01 µM: 97%
[21]
  growth at 1 µM: 86%
[22]
  growth at 1 µM: 95%
NCI-H322M
  growth at 100 µM: 27%
T47D [23]
  growth at 0.01 µM: 90%
[24]
  growth at 0.01 µM: 100%
NCI-H226
  growth at 100 µM: -25%
MDA-MB-468
  growth at 0.01 µM: 86%
[25]
  growth at 100 µM: -15%
EKVX
  growth at 0.1 µM: 94%

## CNC(=O)c1cc(Oc2ccc3nc(NC(=O)Nc4ccc(Cl)c(Cl)c4)sc3c2)ccn1
[1]
  growth at 1 µM: 119%
SR [2]
  growth at 0.1 µM: 105%
HT-29
  growth at 1 µM: 106%
KM12
  growth at 1 µM: 91%
NCI-H460 [3]
  GI50: 2.43 µM
  LC50 (concentration killing 50% of cells): > 100 µM
  TGI: 5.32 µM
[4]
  growth at 0.1 µM: 90%
T47D [5]
  growth at 1 µM: 106%
CCRF-CEM
  GI50: > 100 µM
  TGI: > 100 µM
  CC50: > 100 µM
Malme-3M [6]
  growth at 0.1 µM: 82%
U-251 [7]
  growth at 0.1 µM: 99%
[8]
  growth at 0.1 µM: 96%
U-251 [9]
  growth at 0.01 µM: 98%
NCI-H23
  growth at 1 µM: 88%
A549
  growth at 0.1 µM: 96%
SR [10]
  GI50: 6.47 µM
  LC50: > 100 µM
  TGI: > 100 µM
[11]
  GI50: 2.25 µM
  CC50: > 100 µM
NCI-H460 [12]
  growth at 0.1 µM: 109%
U-251 [13]
  GI50: 1.83 µM
  LC50: 6.53 µM
  TGI: 3.46 µM
[14]
  growth at 0.1 µM: 100%
[15]
  growth at 100 µM: -49%
[16]
  growth at 0.1 µM: 100%
786-0
  growth at 1 µM: 100%
[17]
  growth at 0.01 µM: 101%
MDA-MB-435
  GI50: 2.02 µM
  TGI: 4.62 µM
  CC50: > 100 µM
Malme-3M [18]
  GI50: 1.51 µM
  TGI: 3.3 µM
  CC50: 7.21 µM
[19]
  growth at 100 µM: -50%
[20]
  growth at 100 µM: 26%
SN12C
  growth at 0.01 µM: 102%
[21]
  growth at 1 µM: 106%
[22]
  growth at 1 µM: 98%
NCI-H322M
  growth at 100 µM: 4%
T47D [23]
  growth at 0.01 µM: 102%
[24]
  growth at 0.01 µM: 86%
NCI-H226
  growth at 100 µM: -59%
MDA-MB-468
  growth at 0.01 µM: 94%
[25]
  growth at 100 µM: -68%
EKVX
  growth at 0.1 µM: 93%

## CNC(=O)c1cc(Oc2ccc3nc(NC(=O)c4cc(C(F)(F)F)cc(C(F)(F)F)c4)sc3c2)ccn1
[1]
  growth at 1 µM: 103%
SR [2]
  growth at 0.1 µM: 89%
HT-29
  growth at 1 µM: 100%
KM12
  growth at 1 µM: 86%
NCI-H460 [3]
  GI50: 3.83 µM
  LC50 (concentration killing 50% of cells): 58.9 µM
  TGI: 14.6 µM
[4]
  growth at 0.1 µM: 89%
T47D [5]
  growth at 1 µM: 100%
CCRF-CEM
  GI50: 3.47 µM
  TGI: > 100 µM
  CC50: > 100 µM
Malme-3M [6]
  growth at 0.1 µM: 90%
U-251 [7]
  growth at 0.1 µM: 97%
[8]
  growth at 0.1 µM: 87%
U-251 [9]
  growth at 0.01 µM: 98%
NCI-H23
  growth at 1 µM: 89%
A549
  growth at 0.1 µM: 101%
SR [10]
  GI50: 3.37 µM
  LC50: > 100 µM
  TGI: 15 µM
[11]
  GI50: 2.89 µM
  TGI: 8.12 µM
  CC50: > 100 µM
NCI-H460 [12]
  growth at 0.1 µM: 105%
U-251 [13]
  GI50: 3.65 µM
  LC50: 53.6 µM
  TGI: 13.7 µM
[14]
  growth at 0.1 µM: 86%
[15]
  growth at 100 µM: -38%
[16]
  growth at 0.1 µM: 94%
786-0
  growth at 1 µM: 91%
[17]
  growth at 0.01 µM: 104%
MDA-MB-435
  GI50: 3.28 µM
  TGI: 20.4 µM
  CC50: > 100 µM
Malme-3M [18]
  GI50: 2.03 µM
  TGI: 6.65 µM
  CC50: > 100 µM
[19]
  growth at 100 µM: -42%
[20]
  growth at 100 µM: -29%
SN12C
  growth at 0.01 µM: 98%
[21]
  growth at 1 µM: 99%
[22]
  growth at 1 µM: 88%
NCI-H322M
  growth at 100 µM: -42%
T47D [23]
  growth at 0.01 µM: 97%
[24]
  growth at 0.01 µM: 85%
NCI-H226
  growth at 100 µM: -59%
MDA-MB-468
  growth at 0.01 µM: 92%
[25]
  growth at 100 µM: -13%
EKVX
  growth at 0.1 µM: 91%
